Patent US7166296B2, “Pharmaceutical formulations and ligands for use therein; mimetics for UEA-1” (Sarlan, Ltd., priority 2001, dated 2007)
Values after ≈ are worked out from the molar mass of the structure shown.

How the values were obtained:
[1] = system: UEA-1 binding sites on Caco-2 cell membrane preparations; assay: Single tier competition assay: inhibition of biotinylated UEA-1 binding, compound and biotinylated UEA-1 incubated together; parameters: species or system human; settings: for Av % Inhibition / Avg % Inhibtion: Single Tier Assay; for Av % Inhibition: library MSI 22; for Avg % Inhibtion: library MSI 26
Procedure: (§1) The epithelial cell binding ability of compounds and mixtures obtained from synthetic combinatorial libraries was determined by competition assays. These assays were set up to measure the inhibition of binding of biotinylated UEA-1 to membrane preparations of the epithelial cell line Caco-2 (colon carcinoma cells-2), by compounds and mixtures of the combinatorial libraries. This cell line is a conventional model for epithelial cells.
(§2) Two competition inhibition assays were used in this case, namely single tier and two tier assays. These assays differed from each other in that in the single tier assay, the mixtures/compounds and the biotinylated UEA-1 were incubated together with the Caco-2 cell membrane preparations, while in case of the two-tier assay, the mixture/compounds were allowed to incubate alone with the cell membranes in the absence of biotinylated UEA-1, which was added in the next step. Addition of the extra step in the two-tier assay was to ensure that the compounds inhibiting the binding of biotinylated UEA-1 to the Caco-2 cell membranes were doing so by themselves binding to surface receptors on the Caco-2 cells and not to the biotinylated UEA-1. Each assay will be described in detail.
(§3) • 1. Confluent Caco-2 cell monolayers (grown in 75 cm^2 flasks for up to 1 week at 37° C. and 5% CO2) were washed twice in Dulbecco's PBS (DPBS). • 2. Cell monolayers were treated with 10 mM EDTA-DPBS for 5–10 min at 37° C. and cells were harvested by centrifugation at 1000 rpm for 5 min. • 3. Cells were washed 3 times in DPBS. • 4. […] The cells were homogenised for 30 sec. • 6. The homogenates were centrifuged in hard walled tubes at 40,000 rpm for 45 min at 4° C. • 7. […] The supernatant was removed and stored on ice. The procedure was repeated adding the second supernatant to the first. • 8. The protein concentration was determined using e.g. a Bio-Rad protein assay. • 9. All fractions were stored at −80° C. prior to use. Single Tier Assays: • 1. 96-well microtiter plates were coated with membrane preparations of Caco-2 cells either by allowing them to incubate on the plates for 2½ hours at room temperature or by incubating them overnight at 4° C. 100 μl of 10 μg/ml (in 0.05 M carbonate buffer, pH 9.6) of membrane preparation was added to each well. • 2. The plates were flicked out, patted dry and blocked with bovine serum albumin (BSA)/DPBS (200 μl/well) for 1 to 4 hours at room temperature after which they were washed three times in water. • 3. […] Control wells were also set up in which the Caco-2 cell membrane preparations were incubated with unconjugated UEA-1. […] Following overnight incubation the plates were washed thoroughly (3–6 times). The plates were flicked out, patted dry and biotinylated UEA-1 was detected with commercial Streptavidin conjugated to horseradish peroxidase (HRP) (CalBiochem). […] The plates were left to incubate for an hour at room temperature. • 6. The plates were then washed 3–6 times and the biotin-streptavidin binding was detected by adding an HRP substrate OPD (orthophenyl diamine) to each well. 100 μl/well of this substrate at a final concentration of 1.6 mg/ml was added to each well. Before adding to the wells, this substrate was activated by addition of 50 μl of 3% H2O2 per plate and the reaction was allowed to develop in the dark. • 7. The reaction was stopped by adding 50 μl of 4 N H2SO4 to each well after approximately 5–10 minutes or when sufficient colour had developed. The OD490 (absorbance at 490 nm) of each well was measured using a conventional 96 well plate reading spectrophotometer. Two Tier Assays: • 1. 96 well plates were coated with Caco-2 cell membrane preparations in the same manner as described in the single tier assay. • 2. […] 100 μl at these final concentrations were added to each well. • 4. The plates were then left to incubate overnight, a step that would allow the mixtures and compounds to interact with the Caco-2 cell membranes without the presence of the competitor (biotinylated UEA-1) itself. • 5. […]

[2] = system: UEA-1 binding sites on Caco-2 cell membrane preparations; assay: Two tier competition assay: compound incubated alone with membranes, biotinylated UEA-1 added in next step; parameters: species or system human; settings: for Av % Inhibition / Avg % Inhibition / Avg % Inhib: Two Tier Assay; for Av % Inhibition: library MSI 22; for Avg % Inhibition: library MSI 26; for Avg % Inhib: library TP1012
Procedure: as §1, §2, §3

[3] = library MSI 27, read-out: Single Tier Assay IC50
[4] = library MSI 27, read-out: Two Tier Assay IC50
[5] = Table 8, galloyl constructs, read-out: IC 50 (uM) 1st tier (converted)
[6] = Table 8, galloyl constructs, read-out: IC 50 (uM) 2nd tier

## CNC[C@@H](Cc1ccc(OC(=O)OCc2ccccc2Br)cc1)N(C)C[C@H](CC1CCCCC1)NC(=O)c1cc(OC)c(OC)c(OC)c1
[1]; 62.5 μg/ml
  Av % Inhibition: −0%
[1]; 250 μg/ml
  Av % Inhibition: −11.7%
[2]; 62.5 μg/ml
  Av % Inhibition: 39.7%
[2]; 250 μg/ml
  Av % Inhibition: 58.9%

## CCOc1ccc(C[C@H](CNC)N(C)C[C@H](CC2CCCCC2)NC(=O)c2cc(OC)c(OC)c(OC)c2)cc1
[1]; 62.5 μg/ml
  Av % Inhibition: −9%
[1]; 250 μg/ml
  Av % Inhibition: −55.7%
[2]; 62.5 μg/ml
  Av % Inhibition: 49.8%
[2]; 250 μg/ml
  Av % Inhibition: 43.8%

## NC(=O)c1cc(O)c(O)c(O)c1 [3,4,5-trihydroxybenzamide, reference compound]
[1]; 62.5 μg/ml
  Avg % Inhibtion: 41.7%
[1]; 250 μg/ml
  Avg % Inhibtion: 21%
[2]; 62.5 μg/ml
  Avg % Inhibition: 10.7%
[2]; 250 μg/ml
  Avg % Inhibition: 41.4%

## NC(=O)c1cc(O)cc(O)c1 [3,5-dihydroxybenzamide, reference compound]
[1]; 62.5 μg/ml
  Avg % Inhibtion: −1%
[1]; 250 μg/ml
  Avg % Inhibtion: 2.4%
[2]; 62.5 μg/ml
  Avg % Inhibition: −7%
[2]; 250 μg/ml
  Avg % Inhibition: −2%

## O=C(O)c1cc(O)cc(O)c1 [3,5-dihydroxybenzoic Acid, reference compound]
[1]; 62.5 μg/ml
  Avg % Inhibtion: 0%
[1]; 250 μg/ml
  Avg % Inhibtion: 1.1%
[2]; 62.5 μg/ml
  Avg % Inhibition: −5%
[2]; 250 μg/ml
  Avg % Inhibition: −7%

## COc1cc(C(=O)NCCCCC(NC(=O)c2cc(OC)c(O)c(OC)c2)C(N)=O)cc(OC)c1O (stereo not drawn) [Cpd 1]
[1]; [3]
  IC50: 495 µM
[2]; [4]
  IC50: 495 µM

## COc1ccc(C(=O)NCCCCC(NC(=O)c2ccc(OC)c(OC)c2)C(N)=O)cc1OC (stereo not drawn) [Cpd 2]
[1]; library MSI 27
  Single Tier Assay IC50: 128.20 µg/mL
[1]; [3]
  IC50: 271 µM
[2]; library MSI 27
  Two Tier Assay IC50: 96.44 µg/mL
[2]; [4]
  IC50: 204 µM

## CCOc1cc(C(=O)NCCCCC(NC(=O)c2cc(OCC)c(OCC)c(OCC)c2)C(N)=O)cc(OCC)c1OCC (stereo not drawn) [Cpd 3]
[1]; [3]
  IC50: 405 µM
[2]; [4]
  IC50: 405 µM

## COc1cc(C(=O)NCCCCC(NC(=O)c2cc(OC)c(OC)c(OC)c2)C(N)=O)cc(OC)c1OC (stereo not drawn) [Cpd 4]
[1]; [3]
  IC50: 469 µM
[2]; [4]
  IC50: 469 µM

## NC(=O)C(CCCCNC(=O)c1cc(O)c(O)c(O)c1)NC(=O)c1cc(O)c(O)c(O)c1 (stereo not drawn) [Cpd 6]
[1]; Table 8, galloyl constructs
  IC 50 (ug/ml) 1st tier: 11 µg/mL (≈ 24.5 µM)
[1]; [5]
  IC50: 24 µM
[1]; library MSI 27
  Single Tier Assay IC50: 18.97 µg/mL
[1]; [3]
  IC50: 42.2 µM
[2]; Table 8, galloyl constructs
  IC 50 (ug/ml) 2nd tier: 8 µg/mL (≈ 17.8 µM)
[2]; [6]
  IC50: 17 µM
[2]; library MSI 27
  Two Tier Assay IC50: 12.97 µg/mL
[2]; [4]
  IC50: 28.9 µM

## NC(=O)C(CCCCNC(=O)c1ccc(O)cc1)NC(=O)c1ccc(O)cc1 (stereo not drawn) [Cpd 7]
[1]; [3]
  IC50: 649 µM
[2]; [4]
  IC50: 649 µM

## COc1cc(C(=O)NCCCCC(NC(C)=O)C(N)=O)cc(OC)c1O (stereo not drawn) [Cpd 9]
[1]; library MSI 27
  Single Tier Assay IC50: 125.00 µg/mL
[1]; [3]
  IC50: 340 µM
[2]; library MSI 27
  Two Tier Assay IC50: 101.20 µg/mL
[2]; [4]
  IC50: 275 µM

## CCOc1cc(C(=O)NCCCCC(NC(C)=O)C(N)=O)cc(OCC)c1OCC (stereo not drawn) [Cpd 11]
[1]; [3]
  IC50: 590 µM
[2]; [4]
  IC50: 590 µM

## COc1cc(C(=O)NCCCCC(NC(C)=O)C(N)=O)cc(OC)c1OC (stereo not drawn) [Cpd 12]
[1]; [3]
  IC50: 655 µM
[2]; [4]
  IC50: 655 µM

## CC(=O)NC(CCCCNC(=O)c1cc(O)c(O)c(O)c1)C(N)=O (stereo not drawn) [Cpd 14]
[1]; Table 8, galloyl constructs
  IC 50 (ug/ml) 1st tier: 72 µg/mL (≈ 212 µM)
[1]; [5]
  IC50: 54 µM
[1]; library MSI 27
  Single Tier Assay IC50: 129.70 µg/mL
[1]; [3]
  IC50: 382 µM
[2]; Table 8, galloyl constructs
  IC 50 (ug/ml) 2nd tier: 211 µg/mL (≈ 622 µM)
[2]; [6]
  IC50: 160 µM
[2]; library MSI 27
  Two Tier Assay IC50: 91.52 µg/mL
[2]; [4]
  IC50: 270 µM

## CC(=O)NC(CCCCNC(=O)c1ccc(O)cc1)C(N)=O (stereo not drawn) [Cpd 15]
[1]; library MSI 27
  Single Tier Assay IC50: 111.40 µg/mL
[1]; [3]
  IC50: 362 µM
[2]; library MSI 27
  Two Tier Assay IC50: 86.81 µg/mL
[2]; [4]
  IC50: 282 µM

## CC(=O)NC(CCCCNC(=O)c1cc(O)cc(O)c1)C(N)=O (stereo not drawn) [Cpd 16]
[1]; [3]
  IC50: 773 µM
[2]; library MSI 27
  Two Tier Assay IC50: 108.30 µg/mL
[2]; [4]
  IC50: 335 µM

## COc1cc(C(=O)NCCCCC(NC(=O)c2cc(OC)c(O)c(OC)c2)C(=O)NCCCCC(NC(=O)C(CCCCNC(=O)c2cc(OC)c(O)c(OC)c2)NC(=O)c2cc(OC)c(O)c(OC)c2)C(N)=O)cc(OC)c1O (stereo not drawn) [Cpd 17]
[1]; library MSI 27
  Single Tier Assay IC50: 145.80 µg/mL
[1]; [3]
  IC50: 130 µM
[2]; library MSI 27
  Two Tier Assay IC50: 95.95 µg/mL
[2]; [4]
  IC50: 85.6 µM

## COc1ccc(C(=O)NCCCCC(NC(=O)c2ccc(OC)c(OC)c2)C(=O)NCCCCC(NC(=O)C(CCCCNC(=O)c2ccc(OC)c(OC)c2)NC(=O)c2ccc(OC)c(OC)c2)C(N)=O)cc1OC (stereo not drawn) [Cpd 18]
[1]; library MSI 27
  Single Tier Assay IC50: 111.30 µg/mL
[1]; [3]
  IC50: 105 µM
[2]; library MSI 27
  Two Tier Assay IC50: 90.21 µg/mL
[2]; [4]
  IC50: 85.3 µM

## CCOc1cc(C(=O)NCCCCC(NC(=O)c2cc(OCC)c(OCC)c(OCC)c2)C(=O)NCCCCC(NC(=O)C(CCCCNC(=O)c2cc(OCC)c(OCC)c(OCC)c2)NC(=O)c2cc(OCC)c(OCC)c(OCC)c2)C(N)=O)cc(OCC)c1OCC (stereo not drawn) [Cpd 19]
[1]; [3]
  IC50: 186 µM
[2]; [4]
  IC50: 186 µM

## CCCCC(CNC)N(C)CC(CC1CCCCC1)NC(=O)c1cc(O)c(O)c(O)c1 (stereo not drawn) [compound 86]
[2]; 50 μg/ml
  Avg % Inhib: 61.61%
[2]; 250 μg/ml
  Avg % Inhib: 76.23%

## CCCC[C@H](CNC)N(C)C[C@H](CC1CCCCC1)NC(=O)c1cc(O)c(O)c(O)c1 [compound 90]
[2]; 50 μg/ml
  Avg % Inhib: 53.66%
[2]; 250 μg/ml
  Avg % Inhib: 69.94%

## CCCC[C@@H](CNC)N(C)C[C@@H](CC1CCCCC1)NC(=O)c1cc(O)c(O)c(O)c1 [compound 92]
[2]; 50 μg/ml
  Avg % Inhib: 54.8899%
[2]; 250 μg/ml
  Avg % Inhib: 67.7%

## CCCC[C@@H](CNC)N(C)C[C@H](CC1CCCCC1)NC(=O)c1cc(O)c(O)c(O)c1 [compound 96]
[2]; 50 μg/ml
  Avg % Inhib: 42.93%
[2]; 250 μg/ml
  Avg % Inhib: 65.78%

## CNC[C@H](CC(C)C)N(C)C[C@H](Cc1ccccc1)NC(=O)c1cc(O)c(O)c(O)c1 [compound 125]
[2]; 50 μg/ml
  Avg % Inhib: 61.02%
[2]; 250 μg/ml
  Avg % Inhib: 77.78%

## CNC[C@H](Cc1ccc(F)cc1)N(C)C[C@H](Cc1ccc(F)cc1)NC(=O)Cc1ccc(Cl)c(Cl)c1 [compound 141]
[2]; 50 μg/ml
  Avg % Inhib: 41.43%
[2]; 250 μg/ml
  Avg % Inhib: 72.64%

## CNC[C@H](Cc1ccc(F)cc1)N(C)C[C@H](Cc1ccc(F)cc1)NC(=O)Cc1cccc(C(F)(F)F)c1 [compound 144]
[2]; 50 μg/ml
  Avg % Inhib: 42.26%
[2]; 250 μg/ml
  Avg % Inhib: 66.71%
